Test system: hemoglobin
Assay: Residual percentage of hemoglobin in buffer solution with additive after storage at 37° C., hemoglobin concentration by latex agglutination immunoassay (OC sensor DIANA)
Set-up: species or system human
Settings: for Residual percentage After 6 hours of storage / Residual percentage After 24 hours of storage: 37° C.; for effect of stabilizing hemoglobin (result in words): storage at 37° C., 6 and 24 hours, versus control sample; for residual percentages of hemoglobin after 6 hours of storage and after 24 hours of storage (result in words): stored at a high temperature of 37° C.
Method: A solution (pH7.0) containing 0.3 w/v % bovine serum albumin, NaOH, 0.05 mol/L phosphate buffer solution as a buffer solution, and pure water as the remainder was prepared. 1,2-EDS as an additive was added, to the solution in such an amount as to give each concentration (0.01 to 0.2 mol/L) listed in Table 1, thereby preparing a solution at each concentration. Hemolytic hemoglobin was added to 10 mL of the prepared solutions in such an amount as to give a 600 ng/mL sample.
Immediately after addition of hemoglobin, the hemoglobin concentration (concentration immediately after addition) of each sample was measured. Subsequently, each sample was stored at 37° C. With the time of adding hemoglobin designated as 0 hour of storage, hemoglobin concentration of each sample was measured after 6 hours of storage and after 24 hours of storage (concentration after 6 hours of storage and concentration after 24 hours of storage).
Hemoglobin concentration was measured using an OC sensor DIANA analyzer (Eiken Chemical Co., Ltd) and a dedicated reagent (OC-Hemodia Auto III: Eiken Chemical Co., Ltd) based on the measurement principle, a latex agglutination reaction; that is, a type of immunoassay method. Specifically, 35 μL of the sample was collected and used as a test solution, and then 60 μL of latex (latex solution sensitized with 20 vol % anti-human hemoglobin rabbit polyclonal antibody) and 300 μL of diluent (11.92 mg/mL HEPES) were added to the test solution, followed by measurement of absorbance at a wavelength of 660 nm. Based on a previously produced calibration curve, hemoglobin concentration in the test solution was determined from the thus obtained measurement value. Measurement was performed in triplicate for each sample, the mean value of the measurement results was employed as the hemoglobin concentration of each sample.
From the thus measured hemoglobin concentrations, the residual percentages of hemoglobin were found based on the following formula.
Residual percentage [%] of hemoglobin after 6 hours of storage or after 24 hours of storage=100×hemoglobin concentration [ng/mL] after 6 hours of storage or after 24 hours of storage/concentration [ng/mL] immediately after addition in control sample.
Specifically, the residual percentage of hemoglobin of each sample is a relative value with the hemoglobin concentration (immediately after addition) in a control sample designated as 100%. The control sample in this example was a phosphate buffer solution (containing no 1,2-EDS) containing bovine serum albumin and NaOH, and the concentration immediately after addition in the control sample was 583 ng/mL.
Samples were prepared in a manner similar to Example 1 except that 0.05 mol/L N-(2-hydroxyethyl)piperazine-N′-ethanesulfonic acid (hereinafter, referred to as HEPES) was used instead of a phosphate buffer solution and that 1,2-EDS was added in such an amount as to give each concentration (0.005 to 0.2 mol/L) listed in Table 2, and then hemoglobin concentrations were measured. In addition, the residual percentage of each sample was represented by a relative value with the concentration immediately after addition (576 ng/mL) in a control sample (HEPES buffer solution (containing no 1,2-EDS) containing bovine serum albumin and NaOH) designated as 100%.
Samples were prepared in a manner similar to Example 1 except that 0.05 mol/L HEPES, 0.05 mol/L piperazine-N,N′-bis(2-ethanesulfonic acid) (hereinafter, referred to as PIPES) or 0.05 mol/L 2-morpholinoethanesulfonic acid (hereinafter, referred to as MES) was used instead of a phosphate buffer solution, and that 1,2-EDS was added in such an amount as to give each concentration listed in Table 3, and then hemoglobin concentrations were measured. […]

[1] = HEPES buffer, additive 5 mM, relative to HEPES control (576 ng/mL)
[2] = HEPES buffer, additive 10 mM, relative to HEPES control (576 ng/mL)
[3] = HEPES buffer, additive 20 mM, relative to HEPES control (576 ng/mL)
[4] = HEPES buffer, additive 20 mM, relative to phosphate control (583 ng/mL)
[5] = HEPES buffer, additive 40 mM, relative to HEPES control (576 ng/mL)
[6] = HEPES buffer, additive 60 mM, relative to HEPES control (576 ng/mL)
[7] = HEPES buffer, additive 100 mM, relative to HEPES control (576 ng/mL)
[8] = HEPES buffer, additive 150 mM, relative to HEPES control (576 ng/mL)
[9] = HEPES buffer, additive 200 mM, relative to HEPES control (576 ng/mL)
[10] = MES buffer, additive 20 mM, relative to phosphate control (583 ng/mL)
[11] = PIPES buffer, additive 20 mM, relative to phosphate control (583 ng/mL)
[12] = phosphate buffer pH7.0, additive 10 mM, relative to control immediately after addition (583 ng/mL)
[13] = phosphate buffer, additive 20 mM, relative to control (583 ng/mL)
[14] = phosphate buffer, additive 40 mM, relative to control (583 ng/mL)
[15] = phosphate buffer, additive 60 mM, relative to control (583 ng/mL)
[16] = phosphate buffer, additive 100 mM, relative to control (583 ng/mL)
[17] = phosphate buffer, additive 150 mM, relative to control (583 ng/mL)
[18] = phosphate buffer, additive 200 mM, relative to control (583 ng/mL)
[19] = HEPES buffer, additive 150 mM, relative to phosphate control (548 ng/mL)
[20] = phosphate buffer, additive 50 mM, relative to phosphate control (548 ng/mL)
[21] = phosphate buffer, additive 150 mM, relative to phosphate control (548 ng/mL)

O=S(=O)(O)CCS(=O)(=O)O [1,2-EDS, 1,2-ethanedisulfonic acid]
Residual percentage After 6 hours of storage [1]: 64.3% | Residual percentage After 24 hours of storage [1]: 14.0% | Residual percentage After 6 hours of storage [2]: 65.2% | Residual percentage After 24 hours of storage [2]: 16.6% | Residual percentage After 6 hours of storage [3]: 67.1% | Residual percentage After 24 hours of storage [3]: 18.1% | Residual percentage After 6 hours of storage [4]: 67.6% | Residual percentage After 24 hours of storage [4]: 20.2% | Residual percentage After 6 hours of storage [5]: 68.5% | Residual percentage After 24 hours of storage [5]: 19.7% | Residual percentage After 6 hours of storage [6]: 71.3% | Residual percentage After 24 hours of storage [6]: 20.8% | Residual percentage After 6 hours of storage [7]: 72.4% | Residual percentage After 24 hours of storage [7]: 21.6% | Residual percentage After 6 hours of storage [8]: 72.8% | Residual percentage After 24 hours of storage [8]: 20.4% | Residual percentage After 6 hours of storage [9]: 73.1% | Residual percentage After 24 hours of storage [9]: 21.8% | Residual percentage After 6 hours of storage [10]: 65.9% | Residual percentage After 24 hours of storage [10]: 18.7% | Residual percentage After 6 hours of storage [11]: 63.6% | Residual percentage After 24 hours of storage [11]: 14.3% | Residual percentage After 6 hours of storage [12]: 52.5% | Residual percentage After 24 hours of storage [12]: 7.5% | Residual percentage After 6 hours of storage [13]: 56.3% | Residual percentage After 24 hours of storage [13]: 9.0% | Residual percentage After 6 hours of storage [14]: 61.9% | Residual percentage After 24 hours of storage [14]: 12.8% | Residual percentage After 6 hours of storage [15]: 59.7% | Residual percentage After 24 hours of storage [15]: 12.3% | Residual percentage After 6 hours of storage [16]: 65.4% | Residual percentage After 24 hours of storage [16]: 16.6% | Residual percentage After 6 hours of storage [17]: 71.5% | Residual percentage After 24 hours of storage [17]: 24.3% | Residual percentage After 6 hours of storage [18]: 46.2% | Residual percentage After 24 hours of storage [18]: 7.9% | effect of stabilizing hemoglobin (result in words): effect of stabilizing hemoglobin | residual percentages of hemoglobin after 6 hours of storage and after 24 hours of storage (result in words): high levels

O=S(=O)(O)CCCCS(=O)(=O)O [1,4-BDS, 1,4-butanedisulfonic acid]
Residual percentage After 6 hours of storage [19]: 74.7% | Residual percentage After 24 hours of storage [19]: 28.4% | Residual percentage After 6 hours of storage [20]: 68.3% | Residual percentage After 24 hours of storage [20]: 14.5% | Residual percentage After 6 hours of storage [21]: 69.9% | Residual percentage After 24 hours of storage [21]: 18.4% | effect of stabilizing hemoglobin (result in words): effect of stabilizing hemoglobin | residual percentages of hemoglobin after 6 hours of storage and after 24 hours of storage (result in words): high levels

O=S(=O)(O)c1ccc2cc(S(=O)(=O)O)ccc2c1 [2,6-NDS, 2,6-naphthalenedisulfonic acid]
Residual percentage After 6 hours of storage [20]: 55.7% | Residual percentage After 24 hours of storage [20]: 11.1% | effect of stabilizing hemoglobin (result in words): effect of stabilizing hemoglobin | residual percentages of hemoglobin after 6 hours of storage and after 24 hours of storage (result in words): high levels

O=S(=O)(O)c1cccc2cccc(Nc3ccccc3)c12 [ANS, 8-anilino-1-naphthalenesulfonate, reference compound]
Residual percentage After 6 hours of storage [12]: 2.6% | Residual percentage After 24 hours of storage [12]: 2.5%

O=S(=O)([O-])CCS.[Na+] [MESS, sodium 2-mercaptoethanesulfonate, reference compound]
Residual percentage After 6 hours of storage [12]: 33.4% | Residual percentage After 24 hours of storage [12]: 3.3%

O=S(=O)(O)CCN1CCN(CCS(=O)(=O)O)CC1 [PIPES, piperazine-N,N′-bis(2-ethanesulfonic acid)]
Residual percentage After 6 hours of storage [20]: 58.4% | Residual percentage After 24 hours of storage [20]: 10.4% | effect of stabilizing hemoglobin (result in words): effect of stabilizing hemoglobin

— US11125659B2, “Preservative solution for heme protein, and method for stabilizing heme protein” (EIKEN KAGAKU KABUSHIKI KAISHA, priority 2015, dated 2021)
